The text below walks through data of patent publication EP1541559A1, “5-SUBSTITUTED ISOQUINOLINE DERIVATIVE” (Asahi Kasei Pharma Corporation, priority 2002, dated 2004).

The test system of assay [1] is myosin regulatory light chain. Description: Action on amount of phosphorylated myosin regulatory light chain in the cells (Test Example 1). It is filed as cell-based, human. The note with it: neutrophils of healthy volunteers, reaction with test compound at 25°C for 5 minutes, read-out: Inhibition of myosin regulatory light chain phosphorylation (IC50: µM). How it is done:
The neutrophils were washed with PBS(-) and resuspended in Hanks' Balanced Salt Solution (HBSS+, Gibco) to prepare a cell suspension (8 x 10^6/ml). The cell suspension was diluted to 5 x 10^6/ml, introduced into Eppendorf tubes in a volume of 0.4 ml each, then 0.1 ml each of solutions of a test compound at various concentrations were added to the suspension and allowed to react at 25°C for 5 minutes. After the reaction, 0.1 ml of trichloroacetic acid solution was added to each reaction, the reaction mixture was gently shaken and centrifuged at 12,000 rpm (4°C, 5 minutes), and the supernatant was removed. Subsequently, 3 μl of 1 M Tris solution was added to the residue, the mixture was further mixed with 50 μl of extraction buffer (8 M urea, 0.02% 2-mercaptoethanol, 0.002% bromophenol blue) and left stand at room temperature for 1 hour. Then, the reaction mixture was loaded on a spin column (0.45 μm, Millipore) to remove the insoluble solids and a sample buffer for SDS polyacrylamide gel electrophoresis (25 mM, Tris-HCl pH 6.8, 2.5% 2-mercaptoethanol, 2% sodium dodecylsulfate, 5% sucrose, 0.002% bromophenol blue as final concentrations) was added, and 10 μl of each sample was subjected to electrophoresis. […] J. Physiol., 274, […]-[…] (1998)), which specifically recognize the phosphorylated myosin regulatory light chain, and donkey anti-mouse IgG (Chemicon) conjugated with horseradish peroxidase (HRP-labeled). The band of the phosphorylated myosin regulatory light chain was detected on a film by using ECL Plus Kit (Amersham Pharmacia Biotech). This band was subjected to quantification using a densitometer. By using this value, the inhibitory ratio (%) for phosphorylation of the myosin regulatory light chain was calculated by using the following equation.

Assay [2] deals with ovalbumin-immunized guinea pigs. Kind of assay: Respiratory tract constriction suppression action, ovalbumin-induced (Test Example 3). The note with it: result in words; test medicament given into hind leg vein after induction with 0.3 mg/kg ovalbumin, measured for 15 minutes. It is filed as in vivo, Hartley guinea pigs. The procedure:
Four-week old Hartley guinea pigs (male) were immunized by intraperitoneal administration of ovalbumin (Sigma, Grade V) in amounts of 1 mg for each animal on the day on which the experiment was started, 3 mg for each animal after 2 days, and 10 mg for each animal after 4 days. Twelve to fourteen days after the final immunization, the ovalbumin-immunized guinea pigs were anesthetized by intraperitoneal administration of about 40 mg/kg of pentobarbital (Somnopentyl), and the tracheas were taken out. Subsequently, a cannula (SP-110, Natsume) was inserted into each trachea, and one end of the cannula was connected to an artificial respirator (Model-b83, Harvard). The aeration conditions were set at 6 ml per kilogram and 60 times per 1 minute. Further, a cannula for medicament administration (JMS wing needle 23G 3/4) was inserted into a hind leg vein. Myoblock (Organon Technica) was administered in an amount of 0.5 mg/kg from the cannula inserted into the hind leg vein to stop the spontaneous breathing, and after 2 or 3 minutes, 0.3 mg/kg of ovalbumin was administered to induce constriction of respiratory tract. The increase of airway resistance value 2 minutes after the induction (measurement apparatuses: pressure transducer TR-603T, respiratory amplifier AR-601G, and recorder RTA-3100, Nihon Kohden Corp.) was confirmed to be above 80 cm H2O or higher, and then, a solution of a test medicament was administered from the cannula inserted into the hind leg vein, and the airway resistance value was continuously measured for 15 minutes after the administration to determine the effect.

In another assay the test system is Neutrophils. Kind of assay: Neutrophil migration inhibitory action, Boyden Chamber, FMLP (Test Example 5). It is filed as cell-based, human. The note with it: Homo sapiens, Neutrophil, 0.5 h, FMLP (1 µM), migration at 37°C for 30 minutes; read-out: Neutrophil migration inhibition IC50. How it is done:
Neutrophils were isolated from 50 to 100 ml of peripheral blood collected from healthy donors by the method described in Test Example 1 to obtain a cell suspension (8 x 10^6/ml). Subsequently, solutions of a test compound at various concentrations were introduced into wells of a 96-well plate in a volume of 125 µl per well, the cell suspension of an equivalent volume was added to it and the plate was preincubated at room temperature for 5 minutes. During the preincubation, FMLP (1 µM, Sigma) solution was added to the lower chamber to set Boyden Chamber, the preincubated cell suspension was added to the upper chamber in a volume of 200 µl per well, and the cells were allowed to migrate at 37°C under 5% carbon dioxide for 30 minutes. The filter after the migration was collected, and the non-migrated cells adhered to the surface that faced the upper chamber were carefully wiped off. Then, the migrated cells on the back surface were stained with DifQuick dye solution (International Reagents), washed with water and dried, and then absorbance was measured at 595 nm. The inhibition ratio against migration (%) of a test compound was calculated by using the following equation: Migration inhibition ratio (%) = (1 -Absorbance of the group with addition of test compound /Absorbance of the group without addition of test compound) x 100 [formula]

Another assay deals with Japanese white rabbit. Description: Intraocular pressure reducing action (Test Example 4). It is filed as in vivo. The note with it: for intraocular pressure reducing activity: result in words. How it is done: A Japanese white rabbit having a body weight of about 2 kg was placed in a positioner and naturalized for one week before the experiment. An ophthalmologic local […] (Benoxil) was administered to the left eye, and then intraocular pressure was measured by using a tonometer (Classic 30, Solan). The initial value of the intraocular pressure was measured, then 50 μl of a test compound (1% aqueous solution) was dropped to the left eye, and after 2 hours, the intraocular pressure was measured. The intraocular pressure reducing action of the test compounds is shown in Table 7 mentioned below as ratios (%) of reduction of intraocular pressure based on the initial value of the intraocular pressure.

The test system of a further assay is thoracic aorta. Description: Vasoconstriction inhibitory action on aorta rings constricted with phenylephrine (Test Example 2). Also on record: species or system Rats (Wistar, 11-week old). The note with it: result in words; aorta constricted with phenylephrine (1 µM). The text has this: Rats (Wistar, 11-week old) were bleeded to death and laparotomized to take out the thoracic aorta.

Where [3] appears, read: Homo sapiens, Neutrophil, 5 min.

Structures can show the parent of a compound that is named as a salt. Where two headings read alike, the source gives them in different places. Bounds are passed on as bounds.

Turning to `Cl.Nc1nccc2c(OCC3CCCNC3)cccc12` (stereo not drawn) [Example 11, 3-[(1-Amino-5-isoquinolyl)oxy]methylpiperidine hydrochloride], the IC50 in assay [1] (setting [3]) lay within 1 to 20 µM; in the assay on Neutrophils, 1 to 10 µM. Besides, the “constriction of respiratory tract (airway resistance value)” value (shortened to “constriction of respiratory tract”) in assay [2] is reported as “significantly improved the constriction of respiratory tract”.

Regarding `Brc1cncc2cccc(NC3CCNCC3)c12` [Example 103, 4-(4-Bromo-5-isoquinolyl)aminopiperidine hydrochloride], the IC50 was ≤ 40 µM in assay [1] (setting [3]), ≤ 20 µM in assay [1] (hydrochloride) and 1 to 10 µM with Neutrophils. The inhibition in vivo at 1 % with Japanese white rabbit (Oryctolagus cuniculus, topical, 50 µl of test compound (1% aqueous solution) dropped to the left eye, after 2 hours, read-out: Intraocular pressure reducing action (reduction ratio) (%)) amounted to 31.3%.

In the case of `Cl.NC1CCC(Nc2cccc3cncc(Br)c23)CC1` (stereo not drawn) [Example 107, N-(4-Bromo-5-isoquinolyl)-1,4-cyclohexanediamine hydrochloride], the IC50 is ≤ 40 µM in assay [1] (setting [3]) and ≤ 20 µM in assay [1] (hydrochloride). Moreover, the “intraocular pressure reducing activity” value in the assay on Japanese white rabbit is reported as “significant intraocular pressure reducing activity”.

In the case of `CCc1cncc2cccc(NC3CCNCC3)c12.Cl` [Example 113, 4-(4-Ethyl-5-isoquinolyl)aminopiperidine hydrochloride], the results for the IC50 (in assay [1] (setting [3]); in assay [1] (hydrochloride); in the assay with Neutrophils) were ≤ 40 µM, ≤ 20 µM and ≤ 40 µM, respectively. In the assay on thoracic aorta, the vasoconstriction inhibitory action result is on record as “significant vasoconstriction inhibitory action”. In the assay on Japanese white rabbit, the “intraocular pressure reducing activity” value is reported as “significant intraocular pressure reducing activity”.

In the case of `Cl.Oc1nccc2c(NC3CCNCC3)cccc12` [Example 115, 4-(1-Hydroxy-5-isoquinolyl)aminopiperidine hydrochloride], the “intraocular pressure reducing activity” value in the assay on Japanese white rabbit is “significant intraocular pressure reducing activity”.

Regarding `Cl.Clc1cncc2cccc(NC3CCNCC3)c12` [Example 118, 4-(4-Chloro-5-isoquinolyl)aminopiperidine hydrochloride], the IC50 in assay [1] (setting [3]) was ≤ 40 µM; in assay [1] (hydrochloride), ≤ 20 µM. The “constriction of respiratory tract” value in assay [2] is “significantly improved the constriction of respiratory tract”.

With `Cc1cncc2cccc(N[C@H]3CC[C@@H](N)CC3)c12.Cl` [Example 120, Cis-N-(4-methyl-5-isoquinolyl)-1,4-cyclohexanediamine hydrochloride], the IC50 in assay [1] (setting [3]) was ≤ 40 µM; in assay [1] (hydrochloride) it was ≤ 20 µM. Also, the vasoconstriction inhibitory action result in the assay with thoracic aorta is “significant vasoconstriction inhibitory action”. In addition, the “intraocular pressure reducing activity” value with Japanese white rabbit is “significant intraocular pressure reducing activity”.

As to `Cc1cncc2cccc(N[C@H]3CC[C@H](N)CC3)c12.Cl` [Example 121, Trans-N-(4-methyl-5-isoquinolyl)-1,4-cyclohexanediamine hydrochloride], the IC50 in assay [1] (setting [3]) was ≤ 40 µM; in assay [1] (hydrochloride), ≤ 20 µM; in the assay with Neutrophils, 1 to 10 µM. Further, the vasoconstriction inhibitory action result in the assay with thoracic aorta is “significant vasoconstriction inhibitory action”. Further, in assay [2], the “constriction of respiratory tract” value was “significantly improved the constriction of respiratory tract”.

For `CS(=O)(=O)c1ccc(CCCN(CCCN)S(=O)(=O)c2cccc3cnccc23)cc1.Cl` [Example 124, N-[(5-Isoquinolyl)sulfonyl]-N-[3-(4-methanesulfonyl)phenylpropyl]-1,3-propylenediamine hydrochloride], the IC50 in assay [1] (hydrochloride) was ≤ 20 µM. Moreover, in the assay with Japanese white rabbit (50 µl of test compound (1% aqueous solution) dropped to the left eye, after 2 hours), the “Intraocular pressure reducing action (reduction ratio) (%)” value stood at 12.5%.

Regarding `Cl.N[C@H]1CC[C@H](Oc2cccc3cncc(Br)c23)CC1` [Example 133, Trans-4-[(4-bromo-5-isoquinolyl)oxy]cyclohexylamine hydrochloride], the IC50 in assay [1] (setting [3]) was ≤ 40 µM; in assay [1] (hydrochloride) it was ≤ 20 µM. In assay [2], the “constriction of respiratory tract” value is “significantly improved the constriction of respiratory tract”. Besides, the “intraocular pressure reducing activity” value with Japanese white rabbit was “significant intraocular pressure reducing activity”.

As to `Cl.N#Cc1cncc2cccc(O[C@H]3CC[C@H](N)CC3)c12` [Example 134, Trans-4-[(4-cyano-5-isoquinolyl)oxy]cyclohexylamine hydrochloride], the results for the IC50 in assay [1] (setting [3]) and in assay [1] (hydrochloride) were ≤ 40 µM and ≤ 20 µM, respectively. For the same molecule, in the assay with thoracic aorta, the vasoconstriction inhibitory action entry is given as “significant vasoconstriction inhibitory action”. Moreover, the “intraocular pressure reducing activity” value in the assay on Japanese white rabbit is reported as “significant intraocular pressure reducing activity”.

Regarding `Cl.N[C@H]1CC[C@H](Oc2cccc3cnccc23)CC1` [Example 135, Trans-4-[(5-isoquinolyl)oxy]cyclohexylamine hydrochloride], the values for the IC50 in assay [1] (setting [3]) and in assay [1] (hydrochloride) were ≤ 40 µM and ≤ 20 µM, respectively. Also, the “intraocular pressure reducing activity” value in the assay with Japanese white rabbit was “significant intraocular pressure reducing activity”.

For the molecule `C=Cc1cncc2cccc(O[C@H]3CC[C@H](N)CC3)c12.Cl` [Example 136, Trans-4-[(4-vinyl-5-isoquinolyl)oxy]cyclohexylamine hydrochloride], the IC50 in assay [1] (setting [3]) is ≤ 40 µM; in assay [1] (hydrochloride), ≤ 20 µM; in the assay on Neutrophils, ≤ 40 µM. In addition, the vasoconstriction inhibitory action entry in the assay with thoracic aorta was “significant vasoconstriction inhibitory action”. In the assay with Japanese white rabbit, the “intraocular pressure reducing activity” value is given as “significant intraocular pressure reducing activity”.

On to `Cc1cncc2cccc(OC3CCNCC3)c12.Cl` [Example 139, 4-[(4-Methyl-5-isoquinolyl)oxy]piperidine hydrochloride], for which the IC50 in assay [1] (setting [3]) is ≤ 40 µM; in assay [1] (hydrochloride), ≤ 20 µM. For the same molecule, the vasoconstriction inhibitory action entry in the assay with thoracic aorta is given as “significant vasoconstriction inhibitory action”. For the same molecule, in the assay with Japanese white rabbit, the “intraocular pressure reducing activity” value is “significant intraocular pressure reducing activity”.

Regarding `Cl.OCCCN1CCC(Nc2cccc3cnccc23)CC1` [Example 145, 1-(3-Hydroxypropyl)-4-(5-isoquinolyl)aminopiperidine hydrochloride], the IC50 in assay [1] (setting [3]) is ≤ 40 µM; in assay [1] (hydrochloride), ≤ 20 µM; in the assay on Neutrophils it was ≤ 40 µM. Besides, in the assay with Japanese white rabbit, the “intraocular pressure reducing activity” value is on record as “significant intraocular pressure reducing activity”.
